Earlier results, collected in patent US20200368246A1, “COMBINATION THERAPY TARGETING CANCER ASSOCIATED WITH THE HEDGEHOG PATHWAY” (priority 2017, published 2020).
Like-named read-outs stand apart in the source and are kept apart here.

Key:
[1] = tested on: advanced and metastatic basal cell carcinoma; conditions: monotherapy
[2] = for patients who experience treatment-emergent adverse events: monotherapy at recommended dose; for patients who experienced adverse side effects: muscle spasms, alopecia, taste loss, weight loss, fatigue
basal cell carcinoma = conditions: patient
[3] = nineteen patients; grade 2 fatigue and grade 4 congestive heart failure
[4] = metastatic basal cell carcinoma

Molecule | mean time for secondary resistance [1] | treated patients with secondary resistance [1] [%] | response rate ([1]; advanced basal cell carcinoma) [%] | response rate [1, 4] [%] | patients who experience treatment-emergent adverse events [2] | patients with severe grade 3 or 4 adverse reactions ([2]; monotherapy trial) [%] | patients who experienced adverse side effects ([2]; monotherapy trial) [%] | tumor shrinkage (basal cell carcinoma; clinical trial, within the first several months) [%] | tumor outcome on second course (basal cell carcinoma; placed back on the drug after radiation) | patients who had to discontinue treatment due to toxic effects ([2]; monotherapy trial) [%] | adverse events associated with treatment [3] | effectiveness (basal cell carcinoma; 3 cycles)
CS(=O)(=O)c1ccc(C(=O)Nc2ccc(Cl)c(-c3ccccn3)c2)c(Cl)c1 [Erivedge®, vismodegib] | about 52 weeks | 21 | 43 | 30 | Ninety-five to one hundred percent | 25 | 33 | 70 | the tumor developed resistance to the drug | – | – | –
Cc1c(C(=O)Nc2ccc(N3C[C@@H](C)O[C@@H](C)C3)nc2)cccc1-c1ccc(OC(F)(F)F)cc1 [Odomzo®, sonidegib] | about 52 weeks | 21 | 47 | 17.4 | Ninety-five to one hundred percent | – | 32 | – | – | 22 | – | –
CCC(C)n1ncn(-c2ccc(N3CCN(c4ccc(OCC5COC(Cn6cncn6)(c6ccc(Cl)cc6Cl)O5)cc4)CC3)cc2)c1=O (stereo not drawn) [itraconazole] | – | – | – | – | – | – | – | – | – | – | two adverse events | –
pembrolizumab [Keytruda] | – | – | – | – | – | – | – | – | – | – | – | failed to show effectiveness
